# Data as given in patent US9957232B2, “4-[4-({[4-chloro-3-(trifluoromethyl)phenyl]carbamoyl}amino)-3-fluorophenoxy]-N-methylpyridine-2-carboxamide monohydrate” (BAYER HEALTHCARE LLC, priority 2006, dated 2018).
# Assay: stability in the manufacture of pharmaceutical compositions
# Assay type: physicochemical
# Conditions: monohydrate form; qualitative statement, no test described
smiles,measurement,value
"CNC(=O)c1cc(Oc2ccc(NC(=O)Nc3ccc(Cl)c(C(F)(F)F)c3)c(F)c2)ccn1 [compound of the formula (II), 4-[4-({[4-chloro-3-(trifluoromethyl)phenyl]carbamoyl}amino)-3-fluorophenoxy]-N-methylpyridine-2-carboxamide monohydrate]",stability in the manufacture of pharmaceutical compositions,high stability
